Experimental data from patent US7713937B2, “Synthetic peptide amides and dimeric forms thereof” (Cara Therapeutics, Inc., priority 2006, dated 2010).
Square brackets hold non-standard residues; d marks the D form. Peptide text beside a SMILES is read from it. * marks the point of attachment. Homopiperazine(4-amidino) = N=C(N)N1CCCN(*)CC1; dAgb = N=C(N)NCC[C@@H](N)C(=O)O; Homopiperazinyl = C1CNCCN(*)C1; dAgp = N=C(N)NC[C@@H](N)C(=O)O; dNle = CCCC[C@@H](N)C(=O)O; dOrn = NCCC[C@@H](N)C(=O)O; dDab = NCC[C@@H](N)C(=O)O; Morpholide = C1CN(*)CCO1; Inp = O=C(O)C1CCNCC1

Assays:
[1] = molecular target: T1, mouse kappa opioid receptor (mKOR) (Mus musculus, UniProt P33534); experiment: cell-based; conditions: for Emax: read-out: mKOR Efficacy(%)
T1 construct: Stimulation of Endogenous Mouse Kappa-Opioid Receptor in R1.G1 Cells; host or cells: R1.G1 mouse thymoma cells
T1 sequence (P33534 whole entry): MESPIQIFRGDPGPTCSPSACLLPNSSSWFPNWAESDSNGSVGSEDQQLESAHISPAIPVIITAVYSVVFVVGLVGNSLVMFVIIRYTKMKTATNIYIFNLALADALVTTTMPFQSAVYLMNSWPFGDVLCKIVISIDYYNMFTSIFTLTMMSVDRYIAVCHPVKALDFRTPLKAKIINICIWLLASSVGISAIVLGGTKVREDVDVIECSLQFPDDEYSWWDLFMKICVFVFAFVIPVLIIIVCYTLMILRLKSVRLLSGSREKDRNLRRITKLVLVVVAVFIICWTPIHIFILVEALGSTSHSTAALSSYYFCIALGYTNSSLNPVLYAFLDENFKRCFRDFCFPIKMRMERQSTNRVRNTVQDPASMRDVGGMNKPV

[2] = molecular target: T2, human kappa opioid receptor (hKOR) (Homo sapiens, UniProt P41145); experiment: cell-based; conditions: for Emax: HEK293, read-out: hKOR Efficacy(%)
T2 construct: expressed in transfected cells; host or cells: HEK-293 cells, transient transfection with Fugene6
T2 sequence (P41145 whole entry): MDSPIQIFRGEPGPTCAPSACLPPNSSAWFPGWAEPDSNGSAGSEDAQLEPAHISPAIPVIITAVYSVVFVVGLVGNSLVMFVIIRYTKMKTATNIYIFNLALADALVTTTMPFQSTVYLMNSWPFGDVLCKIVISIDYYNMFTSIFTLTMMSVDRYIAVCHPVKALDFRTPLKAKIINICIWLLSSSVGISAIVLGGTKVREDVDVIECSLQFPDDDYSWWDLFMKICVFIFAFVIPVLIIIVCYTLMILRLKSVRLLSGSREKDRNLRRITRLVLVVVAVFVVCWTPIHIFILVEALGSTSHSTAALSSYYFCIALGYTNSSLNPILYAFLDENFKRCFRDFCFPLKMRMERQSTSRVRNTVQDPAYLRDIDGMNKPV

SMILES | EC50 [1] [nM] | Emax [1] [%] | EC50 [2] [nM] | Emax [2] [%]
CC(C)C[C@@H](NC(=O)[C@@H](Cc1ccccc1)NC(=O)[C@H](N)Cc1ccccc1)C(=O)N[C@H](CNC(=N)N)C(=O)N1CCCNCC1 [Compound (20), D-Phe-D-Phe-D-Leu-(β-amidino)D-Dap-[homopiperazine amide]] (H-[dF][dF][dL][dAgp]-Homopiperazinyl) | 0.491 | 102 | 0.39 | 84
CCCC[C@@H](NC(=O)[C@@H](Cc1ccccc1)NC(=O)[C@H](N)Cc1ccccc1)C(=O)N[C@H](CNC(=N)N)C(=O)N1CCCNCC1 [Compound (21), D-Phe-D-Phe-D-Nle-(β-amidino)D-Dap-[homopiperazine amide]] (H-[dF][dF][dNle][dAgp]-Homopiperazinyl) | 0.732 | 103 | 1.06 | 99
CC(C)C[C@@H](NC(=O)[C@@H](Cc1ccccc1)NC(=O)[C@H](N)Cc1ccccc1)C(=O)N[C@H](CCN)C(=O)N1CCCN(C(=N)N)CC1 [Compound (22), D-Phe-D-Phe-D-Leu-D-Dbu-[4-amidinohomopiperazine amide]] (H-[dF][dF][dL][dDab]-{Homopiperazine(4-amidino)}) | 0.095 | 103 | 0.18 | 86
CC(C)C[C@@H](NC(=O)[C@@H](Cc1ccccc1)NC(=O)[C@H](N)Cc1ccccc1)C(=O)N[C@H](CCNC(=N)N)C(=O)N1CCCN(C(=N)N)CC1 [Compound (23), D-Phe-D-Phe-D-Leu-D-Nar-[4-amidinohomopiperazine amide]] (H-[dF][dF][dL][dAgb]-{Homopiperazine(4-amidino)}) | 0.091 | 104 | 0.17 | 84
CC(C)C[C@@H](NC(=O)[C@@H](Cc1ccccc1)NC(=O)[C@H](N)Cc1ccccc1)C(=O)N[C@H](CCCNC(=N)N)C(=O)N1CCCN(C(=N)N)CC1 [Compound (24), D-Phe-D-Phe-D-Leu-D-Arg-[4-amidinohomopiperazine amide]] (H-[dF][dF][dL][dR]-{Homopiperazine(4-amidino)}) | 0.036 | 97 | 0.09 | 93
CC(C)C[C@@H](NC(=O)[C@@H](Cc1ccccc1)NC(=O)[C@H](N)Cc1ccccc1)C(=O)N[C@H](CCCCN)C(=O)N1CCC2(CCNC2=O)CC1 [Compound (25), D-Phe-D-Phe-D-Leu-D-Lys-[2,8-diazaspiro[4,5]decan-1-one amide]] | 0.0314 | 82 | 0.0027 | 101
CC(C)C[C@@H](NC(=O)[C@@H](Cc1ccccc1)NC(=O)[C@H](N)Cc1ccccc1)C(=O)N[C@H](CCCCN)C(=O)N1CCC2(CCN(C)C2=O)CC1 [Compound (26), D-Phe-D-Phe-D-Leu-D-Lys-[2-methyl-2,8-diazaspiro[4,5]decan-1-one amide]] | 0.0194 | 86 | 0.0083 | 99
CC(C)C[C@@H](NC(=O)[C@@H](Cc1ccccc1)NC(=O)[C@H](N)Cc1ccccc1)C(=O)N[C@H](CCCCN)C(=O)N1CCC2(CC1)NC(=O)NC2=O [Compound (27), D-Phe-D-Phe-D-Leu-D-Lys-[1,3,8-triazaspiro[4,5]decane-2,4-dione amide]] | 0.0056 | 87 | < 0.001 | 88
CC(C)C[C@@H](NC(=O)[C@@H](Cc1ccccc1)NC(=O)[C@H](N)Cc1ccccc1)C(=O)N[C@H](CCCCN)C(=O)N1CCC(n2c(=O)[nH]c3cc(Cl)ccc32)CC1 [Compound (28), D-Phe-D-Phe-D-Leu-D-Lys-[5-chloro-1-(piperidin-4-yl)-1H-benzo[d]imidazol-2(3)H-one amide]] |  | 83 |  | 100
CC(C)C[C@@H](NC(=O)[C@@H](Cc1ccccc1)NC(=O)[C@H](N)Cc1ccccc1)C(=O)N[C@H](CCCCN)C(=O)N1CCC(C(=O)N2CCOCC2)CC1 [Compound (29), D-Phe-D-Phe-D-Leu-D-Lys-[morpholino(piperidin-4-yl)methanone amide]] (H-[dF][dF][dL][dK][Inp]-Morpholide) | 0.0464 | 86 | 0.0145 | 100
CC(C)C[C@@H](NC(=O)[C@@H](Cc1ccccc1)NC(=O)[C@H](N)Cc1ccccc1)C(=O)N[C@H](CCCCN)C(=O)N1CCC(n2cc(-c3ccccc3)[nH]c2=O)CC1 [Compound (30)] | 0.129 | 88 |  | 95
Cc1nnc(C)n1C1CCN(C(=O)[C@@H](CCCCN)NC(=O)[C@@H](CC(C)C)NC(=O)[C@@H](Cc2ccccc2)NC(=O)[C@H](N)Cc2ccccc2)CC1 [Compound (31), D-Phe-D-Phe-D-Leu-D-Lys-[4-(3,5-dimethyl-4H-1,2,4-triazol-4-yl)piperidine amide]] | 0.0216 | 86 | 0.0042 | 95
CC(C)C[C@@H](NC(=O)[C@@H](Cc1ccccc1)NC(=O)[C@H](N)Cc1ccccc1)C(=O)N[C@H](CCCCN)C(=O)N1CCC2(CC1)C(=O)NCN2c1ccccc1 [Compound (33), D-Phe-D-Phe-D-Leu-D-Lys-[1-phenyl-1,3,8-triazaspiro[4.5]decan-4-one amide]] |  | 86 |  | 101
CC(C)C[C@@H](NC(=O)[C@@H](Cc1ccccc1)NC(=O)[C@H](N)Cc1ccccc1)C(=O)N[C@H](CCCCN)C(=O)NCc1cn2ccccc2n1 [Compound (34), D-Phe-D-Phe-D-Leu-D-Lys-[imidazo[1,2-a]pyridine-2-ylmethyl amide]] | 0.354 | 90 | 0.0208 | 101
Cc1cnc(CNC(=O)[C@@H](CCCCN)NC(=O)[C@@H](CC(C)C)NC(=O)[C@@H](Cc2ccccc2)NC(=O)[C@H](N)Cc2ccccc2)cn1 [Compound (35), D-Phe-D-Phe-D-Leu-D-Lys-[(5-methylpyrazin-2-yl)methyl amide]] | 0.0359 |  | 0.0064 | 
CC(C)C[C@@H](NC(=O)[C@@H](Cc1ccccc1)NC(=O)[C@H](N)Cc1ccccc1)C(=O)N[C@H](CCCCN)C(=O)N1CCC(n2c(=O)[nH]c3ccccc32)CC1 [Compound (36), D-Phe-D-Phe-D-Leu-D-Lys-[1-(piperidin-4-yl)-1H-benzo[d]imidazol-2(3H)-one amide]] |  | 87 |  | 100
CC(C)C[C@@H](NC(=O)[C@@H](Cc1ccccc1)NC(=O)[C@H](N)Cc1ccccc1)C(=O)N[C@H](CCCCN)C(=O)N1CCc2[nH]ncc2C1 [Compound (37), D-Phe-D-Phe-D-Leu-D-Lys-[4,5,6,7-tetrahydro-1H-pyrazolo[4,3-c]pyridine amide]] | 0.0234 | 90 | 0.0052 | 100
CC(C)C[C@@H](NC(=O)[C@@H](Cc1ccccc1)NC(=O)[C@H](N)Cc1ccccc1)C(=O)N[C@H](CCCN)C(=O)NCCN1CCN(CC(=O)O)CC1 [Compound (38), D-Phe-D-Phe-D-Leu-D-Orn-[4-(2-aminoethyl)-1-carboxymethyl-piperazine]-OH] | 0.403 | 98 |  | 102
CC(C)C[C@@H](NC(=O)[C@@H](Cc1ccccc1)NC(=O)[C@H](N)Cc1ccccc1)C(=O)N[C@H](CCCN)C(=O)N1CCC(CC(=O)O)CC1 [Compound (39), D-Phe-D-Phe-D-Leu-D-Orn-[4-carboxymethyl-piperidine]-OH] | 0.08 | 97 | 0.12 | 99
CC(C)C[C@@H](NC(=O)[C@@H](Cc1ccccc1)NC(=O)[C@H](N)Cc1ccccc1)C(=O)N[C@H](CCCN)C(=O)N1CCC(N)(C(=O)O)CC1 [Compound (43), D-Phe-D-Phe-D-Leu-D-Orn-[ω(4-aminopiperidine-4-carboxylic acid)]-OH] | 0.041 | 100 | 0.14 | 107
CC(C)C[C@@H](NC(=O)[C@@H](Cc1ccccc1)NC(=O)[C@H](N)Cc1ccccc1)C(=O)N[C@H](CCCN)C(=O)N1CCC(CC(N)C(=O)O)CC1 (stereo partly drawn) [Compound (44), D-Phe-D-Phe-D-Leu-D-Orn-[ω(D/L-2-amino-3-(4-N-piperidinyl)propionic acid)]-OH] | 0.028 | 102 | 0.13 | 104
CC(C)C[C@@H](NC(=O)[C@@H](Cc1ccccc1)NC(=O)[C@H](N)Cc1ccccc1)C(=O)N[C@H](CCCN)C(=O)N1CCNC(C(=O)O)C1 (stereo partly drawn) [Compound (45), D-Phe-D-Phe-D-Leu-D-Orn-[ω(D/L-4-piperazine-2-carboxylic acid)]-OH] | 0.197 | 102 | 0.15 | 93
CC(C)C[C@@H](NC(=O)[C@@H](Cc1ccccc1)NC(=O)[C@H](N)Cc1ccccc1)C(=O)N[C@H](CCCN)C(=O)N1CCC(C(=O)O)CC1 [Compound (46), D-Phe-D-Phe-D-Leu-D-Orn-[Isonipecotic acid]-OH] (H-[dF][dF][dL][dOrn][Inp]-OH) | 0.088 | 92 | 0.28 | 128
CC(C)C[C@@H](NC(=O)[C@@H](Cc1ccccc1)NC(=O)[C@H](N)Cc1ccccc1)C(=O)N[C@H](CCCN)C(=O)N1CCC(N2CCC[C@H]2C(=O)O)CC1 [Compound (47), D-Phe-D-Phe-D-Leu-D-Orn-[N-(4-piperidinyl)-L-proline]-OH] | 0.085 | 99 | 0.17 | 92
CC(C)C[C@@H](NC(=O)[C@@H](Cc1ccccc1)NC(=O)[C@H](N)Cc1ccccc1)C(=O)N[C@H](CCCN)C(=O)N1CCC(CCCC(=O)O)CC1 [Compound (48), D-Phe-D-Phe-D-Leu-D-Orn-[4-(4-piperidinyl)-butanoic acid]-OH] | 0.092 | 100 | 0.26 | 97
CC(C)C[C@@H](NC(=O)[C@@H](Cc1ccccc1)NC(=O)[C@H](N)Cc1ccccc1)C(=O)N[C@H](CCCN)C(=O)NCCN1CCN(CC(N)=O)CC1 [Compound (49), D-Phe-D-Phe-D-Leu-D-Orn-[4-(2-aminoethyl)-1-carboxymethyl-piperazine]-NH2] | 0.115 | 96 | 0.22 | 96
